Assay results: patent US20260130933A1, “PHARMACEUTICAL COMPOSITION FOR PREVENTION OR TREATMENT OF NEPHROPATHY AND/OR DIABETES MELLITUS, COMPRISING ENAVOGLIFLOZIN” (DAEWOONG PHARMACEUTICAL CO., LTD., priority 2022, published 2026)

Assay: Example 2: phase 3 trial, enavogliflozin 0.3 mg vs dapagliflozin 10 mg once a day for 24 weeks added to metformin in patients with type 2 diabetes (same efficacy, exploratory and safety endpoints)
Type: in vivo, human
Settings: for Non-inferiority (UCI < 0.35%): HbA1c change at week 24, vs dapagliflozin
Procedure: Subjects who met the inclusion/exclusion criteria were administered a placebo of the clinical trial drug under single-blind (subject blinding) conditions during a 2-week run-in period while continuing to receive metformin. […] The randomized subjects were administered two tablets of the clinical trial drug for each administration group once a day, and then visited the institution at weeks 6, 12, 18, and 24 during the 24-week administration period to conduct efficacy and safety evaluations.
• 1. Change in HbA1c at week 24 after administration of clinical trial drug compared to Visit 2 (randomization)
• 1. Change in HbA1c at each time point of weeks 6, 12, and 18 after administration of clinical trial drug compared to Visit 2 (randomization) • 2. Change in FPG at each time point of weeks 6, 12, 18, and 24 after administration of clinical trial drug compared to Visit 2 (randomization) • 3. Proportion of subjects achieving HbA1c<7% at each time point of weeks 6, 12, 18, and 24 after administration of clinical trial drug • 4. Proportion of subjects achieving HbA1c<6.5% at each time point of weeks 6, 12, 18, and 24 after administration of clinical trial drug • 5. Proportion of subjects achieving therapeutic response (HbA1c change (HbA1c at Visit 2-HbA1c at each evaluation time point)>0.5% or HbA1c<7% at each evaluation time point compared to Visit 2 (randomization)) at each time point of weeks 6, 12, 18 and 24 after administration of clinical trial drug
• 1. Change in fasting c-peptide at each time point of weeks 6, 12, 18, and 24 after administration of clinical trial drug compared to Visit 2 (randomization) • 2. Change in body weight at each time point of weeks 6, 12, 18, and 24 after administration of clinical trial drug compared to Visit 2 (randomization) • 3. Change in fasting lipid concentration (total cholesterol, LDL-C, HDL-C, and triglycerides) at each time point of weeks 6, 12, 18, and 24 after administration of clinical trial drug compared to Visit 2 (randomization) • 4. Changes in systolic or diastolic blood pressure at each time point of weeks 6, 12, 18, and 24 after administration of clinical trial drug compared to Visit 2 (randomization) • 5. Changes in β-cell function and insulin resistance measured by HOMA-β and HOMA-IR at each time point of weeks 6, 12, 18, and 24 after administration of clinical trial drug compared to Visit 2 (randomization) • 6. Changes in renal function-related indicators (UACR, UGCR) measured by UACR at each time point of weeks 6, 12, 18, and 24 after administration of clinical trial drug compared to Visit 2 (randomization) • 7. Changes in obesity-related indicators (adiponectin, leptin) at each time point of weeks 6, 12, 18, and 24 after administration of clinical trial drug compared to Visit 2 (randomization)

[1] = Baseline, modified per-protocol set 1, enavogliflozin 0.3 mg, dapagliflozin 10 mg
[2] = Baseline, per-protocol set, enavogliflozin 0.3 mg, dapagliflozin 10 mg
[3] = Week 6, PPS, enavogliflozin minus dapagliflozin

In the case of `OC[C@H]1O[C@@H](c2cc(Cc3ccc(C4CC4)cc3)c(Cl)c3c2CCO3)[C@H](O)[C@@H](O)[C@@H]1O` [Enavogliflozin, (2S,3R,4R,5S,6R)-2-(7-chloro-6 (4-cyclopropylbenzyl)-2,3-dihydrobenzofuran-4-yl)-6-(hydroxymethyl)tetrahydro-2H-pyran-3,4,5-triol], the “Incidence of serious adverse drug reactions” value (24 weeks) is reported as 1 case, the “Incidence of adverse events or serious adverse events between the test group and the control” value (24 weeks, vs dapagliflozin) is reported as “no statistically significant differences” and the Adiponectin, Mean (SD) (Baseline, PPS) is reported as 6.96 µg/mL. For the same molecule, the Adiponectin, Median (Baseline, PPS) was 5.99 µg/mL, the “HOMA-IR, Mean (SD)” value (Baseline, PPS) was 3.45 and the “HOMA-IR, Median” value (Baseline, PPS) was 2.67. The “HOMA-β, Mean (SD)” value (Baseline, PPS) was 45.53, the “HOMA-β, Median” value (Baseline, PPS) was 35.00 and the “Leptin, Mean (SD)” value (Baseline, PPS) was 12.21 ng/mL. For the same molecule, the “Leptin, Median” value (Baseline, PPS) was 8.00 ng/mL, the “UACR, Mean (SD)” value (Baseline, PPS) was 38190 mg/kg and the “UACR, Median” value (Baseline, PPS) was 10.10 g/kg. For the same molecule, the “UGCR, Mean (SD)” value (Baseline, PPS) was 1.54 mg/mg, the “UGCR, Median” value (Baseline, PPS) was 0.14 mg/mg and the “HDL-C, Mean (SD)” value (Baseline, mPPS1) was 50.94(10.85) mg/dL. The “HDL-C, Median” value (Baseline, mPPS1) was 50.00 mg/dL, the “LDL-C, Mean (SD)” value (Baseline, mPPS1) was 86.52(30.53) mg/dL and the “LDL-C, Median” value (Baseline, mPPS1) was 83.00 mg/dL. The “Triglycerides, Mean (SD)” value (Baseline, mPPS1) was 122.10(85.91) mg/dL, the “Triglycerides, Median” value (Baseline, mPPS1) was 101.00 mg/dL and the “Diastolic blood pressure, Mean (SD)” value (Baseline, mPPS2) was 77.04 mmHg. For the same molecule, the “Diastolic blood pressure, Median” value (Baseline, mPPS2) was 77.00 mmHg, the “Systolic blood pressure, Mean (SD)” value (Baseline, mPPS2) was 129.72(13.64) mmHg and the “Systolic blood pressure, Median” value (Baseline, mPPS2) was 130.00 mmHg. For the same molecule, the “fasting Total cholesterol, Mean (SD)” value [1] was 151.43(32.91) mg/dL, the “fasting Total cholesterol, Median” value [1] was 150.00 mg/dL and the “FPG, Mean (SD)” value [2] was 145.35 mg/dL. The “FPG, Median” value [2] was 147.00 mg/dL, the “HbA1c, Mean (SD)” value [2] was 7.75% and the “HbA1c, Median” value [2] was 7.49%. The “body weight, Mean (SD)” value [2] was 70.17(11.06) kg, the “body weight, Median” value [2] was 67.40 kg and the “fasting c-peptide, Mean (SD)” value [2] was 0.72(0.29) ng/mL. For the same molecule, the “fasting c-peptide, Median” value [2] was 0.66 ng/mL, the “Non-inferiority (UCI < 0.35%)” value was “Yes” and the “Non-inferiority (UCI < 0.35%)” value (listed as enavogliflozin) was “not inferior”. It also gave an Adiponectin change from baseline, ANCOVA LS mean (SE) (Week 6, PPS) of 0.92 µg/mL, an Adiponectin change from baseline, Mean (SD) (Week 6, PPS) of 0.84 µg/mL and an Adiponectin change from baseline, Median (Week 6, PPS) of 0.58 µg/mL. For the same molecule, the Adiponectin, Mean (SD) (Week 6, PPS) was 7.8 µg/mL, the Adiponectin, Median (Week 6, PPS) was 6.87 µg/mL and the “HOMA-IR change from baseline, ANCOVA LS mean (SE)” value (Week 6, PPS) was −1.47. For the same molecule, the “HOMA-IR change from baseline, Mean (SD)” value (Week 6, PPS) was −1.35, the “HOMA-IR change from baseline, Median” value (Week 6, PPS) was −0.91 and the “HOMA-IR, Mean (SD)” value (Week 6, PPS) was 2.10. The “HOMA-IR, Median” value (Week 6, PPS) was 1.72, the “HOMA-β change from baseline, ANCOVA LS mean (SE)” value (Week 6, PPS) was 7.22 and the “HOMA-β change from baseline, Mean (SD)” value (Week 6, PPS) was 5.87. For the same molecule, the “HOMA-β change from baseline, Median” value (Week 6, PPS) was 8.10, the “HOMA-β, Mean (SD)” value (Week 6, PPS) was 51.39 and the “HOMA-β, Median” value (Week 6, PPS) was 43.00. The “Leptin change from baseline, ANCOVA LS mean (SE)” value (Week 6, PPS) was -2.43 ng/mL, the “Leptin change from baseline, Mean (SD)” value (Week 6, PPS) was -2.54 ng/mL and the “Leptin change from baseline, Median” value (Week 6, PPS) was -1.36 ng/mL. The “Leptin, Mean (SD)” value (Week 6, PPS) was 9.66 ng/mL, the “Leptin, Median” value (Week 6, PPS) was 5.99 ng/mL and the “UACR change from baseline, ANCOVA LS mean (SE)” value (Week 6, PPS) was -12.75 g/kg. The “UACR change from baseline, Mean (SD)” value (Week 6, PPS) was -11440 mg/kg, the “UACR change from baseline, Median” value (Week 6, PPS) was 0.00 g/kg and the “UACR, Mean (SD)” value (Week 6, PPS) was 26760 mg/kg. The “UACR, Median” value (Week 6, PPS) was 11.40 g/kg, the “UGCR change from baseline, ANCOVA LS mean (SE)” value (Week 6, PPS) was 65.72 mg/mg and the “UGCR change from baseline, Mean (SD)” value (Week 6, PPS) was 63.13 mg/mg. For the same molecule, the “UGCR change from baseline, Median” value (Week 6, PPS) was 57.91 mg/mg, the “UGCR, Mean (SD)” value (Week 6, PPS) was 64.66 mg/mg and the “UGCR, Median” value (Week 6, PPS) was 58.45 mg/mg. For the same molecule, the “HOMA-IR change from baseline, LS mean difference” value [3] was −0.16, the “HOMA-β change from baseline, LS mean difference” value [3] was 9.01 and the “UACR change from baseline, LS mean difference” value [3] was -20.88 g/kg.
